The nature of series [1]: Cytotoxicity against human MCF-10A cells assessed as cell viability incubated for 96 hrs by MTT assay. The series is classed as toxicity, cell-based. The settings on record: read-out: Activity. Also noted: concentration or dose not given beside the values.
In series [2] the test system is MIA PaCa-2. Kind of series: Antiproliferative activity against human MIA PaCa-2 cells assessed as inhibition of cell growth incubated for 48 hrs by propidium iodide staining based fluorometer assay. The series is classed as functional. The settings on record: MIA PaCa-2, 48 h.
The species entered for series [3] is Sus scrofa. Put plainly: Induction of pig brain microtubule stabilization at 25 uM measured after 15 mins by fluorescence based turbidimetry. In kind it is tissue-based.
Series [4] concerns A549. Kind of series: Antiproliferative activity against human A549 cells assessed as inhibition of cell growth incubated for 48 hrs by propidium iodide staining based fluorometer assay. The series is classed as functional. The settings on record: A549, 48 h.
Series [5] relates to NCI-H460. Kind of series: cells. The settings on record: Homo sapiens, NCI-H460, 48 h.
Description: Antiproliferative activity against human NCI-H460 cells assessed as inhibition of cell growth incubated for 48 hrs by propidium iodide staining based fluorometer assay
Series [6] deals with Tubulin (Sus scrofa) (UniProt P02554+P02550). Kind of series: Inhibition of pig brain tubulin polymerization at 25 uM measured after 15 mins by fluorescence based turbidimetry. The series is classed as tissue-based.
In series [7] the test system is PANC-1. Kind of series: cells. The settings on record: Homo sapiens, PANC-1, 48 h.
Description: Antiproliferative activity against human PANC-1 cells assessed as inhibition of cell growth incubated for 48 hrs by propidium iodide staining based fluorometer assay
The test system of series [8] is HT-29. Kind of series: cells. The settings on record: Homo sapiens, HT-29, 48 h.
Description: Antiproliferative activity against human HT-29 cells assessed as inhibition of cell growth incubated for 48 hrs by propidium iodide staining based fluorometer assay
Series [9] concerns the target Epidermal growth factor receptor (Homo sapiens, UniProt P00533). Put plainly: Inhibition of recombinant 6His-tagged EGFR cytoplasmic domain (645 to 1186 residues) (unknown origin) autophosphorylation expressed in baculovirus infected Sf9 insect cells preincubated for 10 mins followed by ATP and MgCl2 addition measured after 60 mins by DELFIA/time-resolved fluorometric analysis.

Series [10] has as its system L5178Y. Kind of series: Reversal of multidrug resistance in mouse L5178Y cells transfected with human MDR1 assessed as reversal of rhodamine 123 accumulation at 50 ug/ml incubated for 30 mins by flow cytometry. In kind it is functional, cell-based. The settings on record: dose 50.0 µg/ml. (In flow cytometry, cells or beads pass a laser one at a time.)
Series [11] deals with PC-3. Put plainly: cells. The settings on record: Homo sapiens, PC-3, 48 h.
Description: Antiproliferative activity against human PC-3 cells assessed as inhibition of cell growth incubated for 48 hrs by propidium iodide staining based fluorometer assay
Series [12] deals with L5178Y. Kind of series: Reversal of multidrug resistance in mouse L5178Y cells transfected with human MDR1 assessed as reversal of rhodamine 123 accumulation at 5 ug/ml incubated for 30 mins by flow cytometry. The series is classed as functional, cell-based. The settings on record: dose 5.0 µg/ml.
Series [13] in a line: Toxicity in mouse L5178Y cells transfected with human MDR1 at 50 ug/ml after short period of incubation by tryptan blue assay. The settings on record: dose 50 µg/ml. In kind it is cell-based.
The subject of series [14] is MCF7. Put plainly: Antiproliferative activity against human MCF7 cells assessed as inhibition of cell growth incubated for 48 hrs by propidium iodide staining based fluorometer assay. The series is classed as functional. The settings on record: MCF7, 48 h.
A short description of series [15]: Inhibition of full length mouse GST-tagged BRAF V600E mutant preincubated for 60 mins followed by addition of N-terminal His-tagged full length human MEK1 incubated for 25 mins in presence of ATP by ELISA assay.

SMILES strings stand for the structures. Calls of active or inactive are those of the source. No cut-off for these calls is given here.

From ChEMBL document CHEMBL5257024, “Synthesis of α,β-Unsaturated Carbonyl-Based Compounds, Oxime and Oxime Ether Analogs as Potential Anticancer Agents for Overcoming Cancer Multidrug Resistance by Modulation of Efflux Pumps in Tumor Cells” (J Med Chem, 2016) come the findings set out here.

Chain of Epidermal growth factor receptor (P00533 whole entry, the tested form may be a part): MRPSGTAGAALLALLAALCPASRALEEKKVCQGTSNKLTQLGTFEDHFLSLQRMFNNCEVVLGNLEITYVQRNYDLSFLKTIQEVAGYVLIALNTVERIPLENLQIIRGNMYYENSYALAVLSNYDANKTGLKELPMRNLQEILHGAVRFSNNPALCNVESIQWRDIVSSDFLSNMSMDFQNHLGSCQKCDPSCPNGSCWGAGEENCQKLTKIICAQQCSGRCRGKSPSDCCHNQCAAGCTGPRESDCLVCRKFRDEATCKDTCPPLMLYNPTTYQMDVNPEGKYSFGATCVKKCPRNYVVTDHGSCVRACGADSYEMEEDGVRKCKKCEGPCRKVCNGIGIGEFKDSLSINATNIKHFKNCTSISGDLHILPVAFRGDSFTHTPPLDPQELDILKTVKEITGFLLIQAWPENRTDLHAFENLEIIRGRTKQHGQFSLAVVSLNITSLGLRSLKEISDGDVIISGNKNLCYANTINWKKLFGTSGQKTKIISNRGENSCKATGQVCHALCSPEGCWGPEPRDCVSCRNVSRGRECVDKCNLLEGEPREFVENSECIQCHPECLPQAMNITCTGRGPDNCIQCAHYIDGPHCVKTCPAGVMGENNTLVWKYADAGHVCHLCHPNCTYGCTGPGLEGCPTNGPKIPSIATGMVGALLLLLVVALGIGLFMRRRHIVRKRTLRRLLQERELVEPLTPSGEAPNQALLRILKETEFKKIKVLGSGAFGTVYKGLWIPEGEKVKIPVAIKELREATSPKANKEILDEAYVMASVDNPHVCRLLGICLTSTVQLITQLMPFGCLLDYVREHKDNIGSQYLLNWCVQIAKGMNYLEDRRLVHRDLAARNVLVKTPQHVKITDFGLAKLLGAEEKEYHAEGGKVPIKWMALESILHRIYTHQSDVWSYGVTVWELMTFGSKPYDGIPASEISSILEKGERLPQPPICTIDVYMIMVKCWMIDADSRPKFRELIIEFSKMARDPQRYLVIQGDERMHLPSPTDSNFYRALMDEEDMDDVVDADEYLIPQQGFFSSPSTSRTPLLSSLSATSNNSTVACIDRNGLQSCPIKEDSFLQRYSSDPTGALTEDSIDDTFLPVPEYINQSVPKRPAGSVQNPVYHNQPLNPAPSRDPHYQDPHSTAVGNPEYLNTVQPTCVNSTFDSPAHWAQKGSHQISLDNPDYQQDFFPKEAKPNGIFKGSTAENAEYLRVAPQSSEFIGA
Chain of Tubulin (Sus scrofa) (P02550 whole entry, looked up): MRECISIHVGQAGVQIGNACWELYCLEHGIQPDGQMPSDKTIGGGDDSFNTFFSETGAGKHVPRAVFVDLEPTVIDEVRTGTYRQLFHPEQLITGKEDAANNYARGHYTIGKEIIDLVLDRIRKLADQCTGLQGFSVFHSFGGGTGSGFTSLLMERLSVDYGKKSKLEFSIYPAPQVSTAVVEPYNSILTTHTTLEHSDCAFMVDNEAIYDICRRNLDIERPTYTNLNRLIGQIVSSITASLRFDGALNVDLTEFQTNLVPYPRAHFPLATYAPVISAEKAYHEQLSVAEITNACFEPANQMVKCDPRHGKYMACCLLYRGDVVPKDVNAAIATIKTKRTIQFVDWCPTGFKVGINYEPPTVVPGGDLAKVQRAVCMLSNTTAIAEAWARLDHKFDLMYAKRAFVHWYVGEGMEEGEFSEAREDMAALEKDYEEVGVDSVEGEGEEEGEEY
Chain of Tubulin (Sus scrofa) (P02554 whole entry, looked up): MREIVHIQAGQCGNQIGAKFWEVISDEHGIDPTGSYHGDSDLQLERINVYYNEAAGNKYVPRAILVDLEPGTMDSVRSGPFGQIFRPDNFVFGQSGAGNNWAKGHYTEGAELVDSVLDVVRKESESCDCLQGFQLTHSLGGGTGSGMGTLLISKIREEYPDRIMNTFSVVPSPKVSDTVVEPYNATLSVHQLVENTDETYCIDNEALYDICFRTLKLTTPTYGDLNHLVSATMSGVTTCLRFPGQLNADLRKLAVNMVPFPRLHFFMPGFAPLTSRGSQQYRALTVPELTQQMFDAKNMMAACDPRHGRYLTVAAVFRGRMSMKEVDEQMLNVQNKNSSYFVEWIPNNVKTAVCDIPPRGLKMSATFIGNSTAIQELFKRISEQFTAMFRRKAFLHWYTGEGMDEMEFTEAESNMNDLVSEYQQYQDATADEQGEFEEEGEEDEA

As for `COc1ccc(/C=C2\CCc3ccc([N+](=O)[O-])cc3\C2=N\O)c(Cl)c1OC`, the viability at 96 h in series [1] is 93%. The IC50 in series [2] turned out to be 90 nM; in series [4], 0.08 µM; in series [5], 80 nM; in series [7], 90 nM; in series [8], 90 nM; in series [9], 2000 nM. The IC50 was determined as 20 nM in [11], 70 nM in series [14] and 900 nM in [15]. Moreover, the result in series [3] and in series [12] was inactive. Besides, the inhibition entry in series [6] is “Active”. The result in [10] was Active. In addition, in series [13], the Activity result is “Non-Toxic”.
On to `COc1cc(/C=C2\CC(C)C/C(=C\c3cc(OC)c(OC)c(OC)c3Br)C2=NO)c(Br)c(OC)c1OC` (stereo not drawn), for which the viability at 96 h in series [1] was found to be 98%. In addition, the IC50 in series [2] was found to be 700 nM; in series [4], 0.3 µM; in series [5], 400 nM; in [7], 200 nM; in series [8], 400 nM; in series [9] (sf9), 500 nM. The IC50 in series [11] came out at 400 nM; in series [14] it was 400 nM; in series [15], 2700 nM. Moreover, the result in series [3], in series [10] and in series [12] was inactive. Also, the inhibition entry in series [6] is “Active”. Moreover, the Activity entry in series [13] is listed as “Non-Toxic”.
Take `COc1cc(/C=C2\CC(C)c3ccccc3\C2=N\O)c(Br)c(OC)c1OC` (stereo not drawn): the viability at 96 h in [1] amounted to 98%. Moreover, the IC50 in series [2] turned out to be 2600 nM; in series [4], 2.2 µM; in [5], 1900 nM; in series [7], 2000 nM; in series [8], 2100 nM; in series [9] it was 3200 nM. Also, the IC50 was 1900 nM in series [11], 2500 nM in series [14] and 2400 nM in [15]. In addition, the result in series [3] and in series [12] was inactive. Further, in [6], the inhibition result was “Active”. Moreover, the result in series [10] was Active. In addition, in series [13], the Activity entry is given as “Non-Toxic”.
Turning to `CCN(CC)CCON=C1/C(=C/c2cc(OC)c(OC)c(OC)c2Br)CC(C)C/C1=C\c1cc(OC)c(OC)c(OC)c1Br` (stereo not drawn), the viability at 96 h in series [1] was 94%. Further, the IC50 in series [2] came to 4900 nM; in [4], 4.1 µM; in series [5], 4100 nM; in [7] it was 4200 nM; in series [8], 4500 nM; in [11], 4700 nM. Besides, the IC50 in series [14] was determined as 4100 nM. Further, the outcome in series [3] was inactive.
Regarding `COc1ccc2c(c1)CCC(=C\c1cc(OC)c(OC)c(OC)c1Br)/C2=N\O`, the viability at 96 h in series [1] worked out at 92%. In addition, the IC50 in series [2] is 1200 nM; in series [4], 1.2 µM; in [5] it was 1100 nM; in series [7] it was 1000 nM; in [8], 1700 nM; in series [9] it was 2100 nM. Moreover, the IC50 in [11] came out at 1400 nM; in series [14] it was 800 nM; in series [15], 1900 nM. Besides, the outcome in [3] and in series [12] was inactive. Besides, the inhibition entry in series [6] was “Active”. For the same compound, the result in series [10] was Active. Besides, in series [13], the Activity entry was “Non-Toxic”.
Turning to `COc1cc(/C=C2\CN(C)C/C(=C\c3cc(OC)c(OC)c(OC)c3Br)C2=NO)c(Br)c(OC)c1OC`, in series [1], the viability at 96 h is 96%. The IC50 is 70 nM in [2]; 0.06 µM in series [4]; 80 nM in series [5]; 90 nM in series [7]; 70 nM in [8]; 70 nM in series [9]. Besides, the values for the IC50 in series [11], in series [14] and in series [15] were 90 nM, 60 nM and 1600 nM, respectively. For the same compound, the outcome in [3], in series [10] and in series [12] was inactive. The inhibition result in series [6] was “inactive”. Further, in series [13], the Activity result is given as “Non-Toxic”.
As for `COc1cc(/C=C2\CCc3c(O)cccc3\C2=N\O)c(Br)c(OC)c1OC`, in series [1], the viability at 96 h amounted to 90%. Also, the IC50 was 1200 nM in series [2]; 2 µM in series [4]; 1300 nM in series [5]; 1500 nM in series [7]; 1100 nM in [8]; 4600 nM in [9]. Moreover, the IC50 came out at 2300 nM in series [11], 1400 nM in series [14] and 1700 nM in series [15]. Moreover, the outcome in series [3] and in series [12] was inactive. Moreover, the inhibition result in series [6] is “Active”. The result in series [10] was Active. The Activity entry in series [13] is reported as “Non-Toxic”.
As to `CCN(CC)CCON=C1/C(=C/c2cc(OC)c(OC)c(OC)c2Br)CN(C)C/C1=C\c1cc(OC)c(OC)c(OC)c1Br`, the viability at 96 h in series [1] was determined as 95%. The IC50 in [2] was found to be 80 nM; in series [4], 0.07 µM; in [5], 70 nM; in series [7], 90 nM; in series [8], 90 nM; in series [9], 100 nM. The IC50 in series [11] was found to be 80 nM; in [14] it was 90 nM; in [15] it was 3200 nM. The result in series [3], in series [10] and in [12] was inactive. In series [6], the inhibition entry was “inactive”. In addition, the Activity result in series [13] is reported as “Non-Toxic”.
Take `COc1ccc(/C=C2\CC(C)C/C(=C\c3ccc(OC)c(OC)c3Cl)C2=O)c(Cl)c1OC` (stereo not drawn): in [1], the viability at 96 h was 94%. The IC50 is 3000 nM in series [2]; 4.4 µM in series [4]; 2900 nM in series [5]; 3200 nM in series [7]; 2900 nM in series [8]; 3700 nM in series [11]. In addition, in series [14], the IC50 came out at 3200 nM.
As for `COc1cccc(/C=C2\CCc3c(O)cccc3C2=O)c1Cl`, the viability at 96 h in [1] was 96%. Moreover, the IC50 worked out at 4900 nM in series [2]; 4.4 µM in series [4]; 4900 nM in series [5]; 4200 nM in series [7]; 5100 nM in series [8]; 5200 nM in series [11]. In [14], the IC50 was 4400 nM.
`COc1cc2c(cc1OC)C(=O)/C(=C/c1ccc(OC)c(OC)c1Cl)CC2`: the viability at 96 h in series [1] was determined as 97%. The IC50 in series [2] stood at 5000 nM; in series [4], 5.4 µM; in series [5], 5800 nM; in series [7], 5400 nM; in series [8], 5200 nM; in series [11] it was 5200 nM. In addition, the IC50 in series [14] worked out at 5400 nM.
`COc1cc2c(cc1OC)C(=O)/C(=C/c1cccc(OC)c1Cl)CC2`: the viability at 96 h in series [1] stood at 91%. Besides, the half-inhibitory concentration (IC50) stood at 9900 nM in series [2]; 9.2 µM in [4]; 9200 nM in [5]; 9500 nM in [7]; 10400 nM in series [8]; 9200 nM in [11]. The IC50 in series [14] is 10500 nM.
`COc1ccc(/C=C2\CCc3c(O)cccc3C2=O)c(Cl)c1OC`: the viability at 96 h in series [1] was 91%. Further, the half-maximal inhibitory concentration (IC50) in series [2] worked out at 3200 nM; in [4], 3.3 µM; in [5] it was 3800 nM; in [7], 3600 nM; in series [8], 3000 nM; in series [11] it was 3500 nM. Further, the IC50 in [14] was 3100 nM.
Consider `COc1ccc2c(c1)CC/C(=C\c1ccc(OC)c(OC)c1Cl)C2=O`, for which the viability at 96 h in series [1] amounted to 89%. Moreover, the IC50 amounted to 2300 nM in [2]; 2.9 µM in [4]; 2600 nM in [5]; 2100 nM in series [7]; 2700 nM in [8]; 2000 nM in [11]. Also, in [14], the IC50 stood at 2600 nM.
Regarding `COc1ccc2c(c1)CC/C(=C\c1cccc(OC)c1Cl)C2=O`, in [1], the viability at 96 h came to 95%. In addition, the IC50 in series [2] amounted to 4000 nM; in [4], 4.6 µM; in series [5], 4700 nM; in series [7], 4500 nM; in series [8] it was 4400 nM; in series [11] it was 4700 nM. In addition, the IC50 in series [14] came to 5100 nM.
Regarding `COc1ccc(/C=C2\CN(C)C/C(=C\c3ccc(OC)c(OC)c3Cl)C2=O)c(Cl)c1OC`, in series [1], the viability at 96 h was determined as 90%. In addition, the IC50 in [2] was determined as 3200 nM; in [4], 3.9 µM; in series [5] it was 3500 nM; in [7], 3400 nM; in series [8] it was 3800 nM; in series [11], 3300 nM. The IC50 in [14] turned out to be 3300 nM.

Broadly, the IC50 is the midpoint of a concentration-inhibition curve.
